Data as given in ChEMBL document CHEMBL1133237, “Enhanced binding of aminoglycoside dimers to a "dimerized" A-site 16S rRNA construct” (Bioorg Med Chem Lett, 2000).

Legend:
[1] = target: Nucleic Acid; assay: Dissociation constant towards 16S rRNA construct A; assay type: nucleic-acid assay
[2] = target: Nucleic Acid; assay: Dissociation constant towards 16S rRNA construct B; assay type: nucleic-acid assay

| SMILES | Kd [1] | Kd [2] |
| --- | --- | --- |
| NC[C@H]1O[C@H](O[C@H]2[C@H](O)[C@@H](O[C@H]3O[C@H](CSCCOCCSSCCOCCSC[C@H]4O[C@H](O[C@@H]5[C@@H](O)[C@H](O[C@H]6O[C@H](CN)[C@@H](O)C[C@H]6N)[C@@H](N)C[C@H]5N)[C@H](O)[C@@H](N)[C@@H]4O)[C@@H](O)[C@H](N)[C@H]3O)[C@H](N)C[C@@H]2N)[C@H](N)C[C@@H]1O [Tobramycin-Tobramycin] | 1780 nM | 1810 nM |
| NC[C@@H]1O[C@H](O[C@H]2[C@@H](O)[C@H](O[C@@H]3[C@@H](O)[C@H](N)C[C@H](N)[C@H]3O[C@H]3O[C@H](CN)[C@@H](O)[C@H](O)[C@H]3N)O[C@@H]2CO)[C@H](N)[C@@H](O)[C@@H]1O [FRAMYCETIN] | 440 nM | 380 nM |

Now from value to compound:

| Kd [1] | Kd [2] | SMILES |
| --- | --- | --- |
| 2110 nM | 1680 nM | NC[C@H]1O[C@H](O[C@H]2[C@H](O)[C@@H](O[C@H]3O[C@H](CO)[C@@H](O)[C@H](N)[C@H]3O)[C@H](N)C[C@@H]2N)[C@H](N)C[C@@H]1O [TOBRAMYCIN] |
| 410 nM | 290 nM | NCC1O[C@H](O[C@H]2[C@@H](O)[C@H](O[C@H]3[C@H](O)[C@@H](N)C[C@@H](N)[C@@H]3O[C@H]3O[C@H](CN)[C@@H](O)[C@H](O)[C@H]3N)O[C@@H]2CSCCOCCSSCCOCCSC[C@H]2O[C@H](O[C@@H]3[C@@H](O)[C@H](O[C@H]4O[C@H](CN)[C@@H](O)C[C@H]4N)[C@@H](N)C[C@H]3N)[C@H](O)[C@@H](N)[C@@H]2O)[C@H](N)[C@@H](O)[C@@H]1O (stereo not given in full) |
| 320 nM | 20 nM | NCC1O[C@H](O[C@H]2[C@@H](O)[C@H](O[C@H]3[C@H](O)[C@@H](N)C[C@@H](N)[C@@H]3O[C@H]3O[C@H](CN)[C@@H](O)[C@H](O)[C@H]3N)O[C@@H]2CSCCOCCSSCCOCCSC[C@H]2O[C@@H](O[C@H]3[C@H](O)[C@@H](N)C[C@@H](N)[C@@H]3O[C@H]3O[C@H](CN)[C@@H](O)[C@H](O)[C@H]3N)[C@H](O)[C@@H]2O[C@@H]2OC(CN)[C@H](O)[C@@H](O)[C@@H]2N)[C@H](N)[C@@H](O)[C@@H]1O (stereo not given in full) |
